Source: patent US11083709B2, “Compounds, compositions, and methods of increasing CFTR activity” (Proteostasis Therapeutics, Inc., priority 2015, dated 2021)

Columns and labels:
ΔF508-CFTR = molecular target: T1, ΔF508-CFTR (Homo sapiens, UniProt P13569, DEL508-508); experiment: hBE equivalent current (Ieq) assay, primary lung epithelial cells homozygous for ΔF508; assay type: cell-based; details: compound at 10 uM and VX-809 at 1 uM, relative to VX-809 (1 uM); 24 h treatment
T1 construct: primary lung epithelial cells (hBEs) homozygous for the Cystic Fibrosis-causing ΔF508 mutation; endogenous in cells; host or cells: primary lung epithelial cells (hBEs) homozygous for ΔF508
T1 sequence (P13569 with tags, fused parts or gaps DEL508-508): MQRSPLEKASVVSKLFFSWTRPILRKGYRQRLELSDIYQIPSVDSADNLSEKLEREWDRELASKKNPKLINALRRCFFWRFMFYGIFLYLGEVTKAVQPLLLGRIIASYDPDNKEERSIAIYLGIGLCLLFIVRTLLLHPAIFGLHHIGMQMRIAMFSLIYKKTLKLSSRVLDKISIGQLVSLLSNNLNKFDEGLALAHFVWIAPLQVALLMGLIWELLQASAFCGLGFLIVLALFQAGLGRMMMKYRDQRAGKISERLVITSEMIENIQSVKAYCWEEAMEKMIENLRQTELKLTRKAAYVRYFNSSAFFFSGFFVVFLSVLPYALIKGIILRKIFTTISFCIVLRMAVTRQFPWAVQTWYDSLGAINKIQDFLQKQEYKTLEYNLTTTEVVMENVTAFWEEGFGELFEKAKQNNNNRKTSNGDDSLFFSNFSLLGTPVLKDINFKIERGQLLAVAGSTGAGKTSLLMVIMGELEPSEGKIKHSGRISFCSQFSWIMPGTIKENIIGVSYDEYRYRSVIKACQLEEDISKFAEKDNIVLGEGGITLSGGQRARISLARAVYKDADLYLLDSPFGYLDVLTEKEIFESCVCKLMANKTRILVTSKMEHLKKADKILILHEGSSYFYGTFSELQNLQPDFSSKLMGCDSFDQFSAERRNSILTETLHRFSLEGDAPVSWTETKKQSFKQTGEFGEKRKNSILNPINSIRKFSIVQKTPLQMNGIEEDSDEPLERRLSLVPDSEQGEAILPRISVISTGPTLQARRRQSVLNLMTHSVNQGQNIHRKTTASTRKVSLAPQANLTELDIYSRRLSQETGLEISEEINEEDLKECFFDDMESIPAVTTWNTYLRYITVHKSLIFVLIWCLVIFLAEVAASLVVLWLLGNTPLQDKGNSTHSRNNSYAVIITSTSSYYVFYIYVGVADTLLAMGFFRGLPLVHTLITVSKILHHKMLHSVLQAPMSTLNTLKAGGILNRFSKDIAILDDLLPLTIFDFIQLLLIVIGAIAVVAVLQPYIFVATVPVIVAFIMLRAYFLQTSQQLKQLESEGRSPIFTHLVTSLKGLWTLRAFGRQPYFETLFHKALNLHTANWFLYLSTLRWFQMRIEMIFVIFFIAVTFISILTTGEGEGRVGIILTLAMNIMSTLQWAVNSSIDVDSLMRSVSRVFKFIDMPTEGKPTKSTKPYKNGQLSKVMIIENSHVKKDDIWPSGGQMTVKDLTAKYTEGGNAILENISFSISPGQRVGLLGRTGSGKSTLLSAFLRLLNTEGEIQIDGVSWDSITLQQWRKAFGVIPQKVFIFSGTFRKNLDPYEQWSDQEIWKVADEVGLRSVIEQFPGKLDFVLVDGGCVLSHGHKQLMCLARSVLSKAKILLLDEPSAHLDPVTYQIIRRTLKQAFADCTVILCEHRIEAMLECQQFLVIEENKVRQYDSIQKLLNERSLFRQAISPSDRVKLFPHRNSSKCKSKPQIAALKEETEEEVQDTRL
Protocol: Primary lung epithelial cells homozygous for the Cystic Fibrosis-causing ΔF508 mutation were differentiated for a minimum of 4 weeks in an air-liquid interface on Costar 24 well HTS filter plates prior to the equivalent current (Ieq) measurements. Cells were apically mucus-washed for 30 minutes 24h prior to treatment with compounds. The basolateral media was removed and replaced with media containing the compound of interest diluted to its final concentration from DMSO stocks. Treated cells were incubated at 37° C. and 5% CO2 for 24 hours. At the end of the treatment period, the media was changed to the Ieq experimental solution for 30 minutes before the experiment and plates are maintained in a CO2-free incubator during this period. The plates containing the cells were then placed in pre-warmed heating blocks at 36° C.±0.5 for 15 minutes before measurements are taken. The transepithelial voltage (VT) and conductance (GT) were measured using a custom 24 channel current clamp (TECC-24) with 24 well electrode manifold. The Ieq assay measurements were made following additions with standardized time periods: • 1. The baseline VT and GT values were measured for approximately 20 minutes. • 2. Benzamil was added to block ENaC for 15 minutes. • 3. Forskolin plus VX-770 (ivacaftor) were added to maximally activate ΔF508-CFTR for 27 minutes. • 4. Bumetanide was added to inhibit the NaK2Cl cotransporter and shut-off secretion of chloride.
The activity data captured was the area under the curve (AUC) for the traces of the equivalent chloride current. The AUC was collected from the time of the forskolin/VX-770 addition until the inhibition by bumetanide addition. Correction in response to compound treatment was scored as the increase in the AUC for compound-treated samples over that of vehicle-treated samples.
The results are shown below in Table 2. ++ indicates activity ≥25% run at 10 uM of VX-809 at 1 uM, + indicates activity 10 to <25% run at 10 uM of VX-809 at 1 uM, ** indicates activity ≥200% of VX-809 (1 uM) with compound at 10 uM and VX-809 at 1 uM; * indicates activity 100-200% of VX-809 (1 uM) with compound at 10 uM and VX-809 at 1 uM. ^## indicates activity ≥200% of VX-809 (3 uM) with compound at 10 uM and VX-809 at 3 uM; ^# indicates activity 100-200% of VX-809 (3 uM) with compound at 10 uM and VX-809 at 3 uM.

[1] = molecular target: T2, CFTR in F508/F508del HBEs (Homo sapiens, UniProt P13569, DEL508-508); experiment: Ussing measurements, F508del/F508del HBEs; assay type: cell-based; details: genotype F508del/F508del
T2 construct: Activity in F508/F508del HBEs (relative); endogenous in cells; host or cells: primary lung epithelial cells (HBEs), genotype F508/F508del [sic]
T2 sequence (P13569 with tags, fused parts or gaps DEL508-508): as above
Protocol: (§1) As discussed above, Ussing measurements were used to measure CFTR activity. In this method, primary lung epithelial cells (hBEs) with a Cystic fibrosis causing class I mutation were differentiated for a minimum of 4 weeks in an air-liquid interface on SnapWell™ filter plates prior to the Ussing measurements. Cells were apically mucus-washed for 30 minutes prior to treatment with compounds. The basolateral media was removed and replaced with media containing the compound of interest diluted to its final concentration from DMSO or aqueous stocks. Treated cells were incubated at 37° C. and 5% CO2 for 24 hours. At the end of the treatment period, the cells on filters were transferred to the Ussing chamber and equilibrated for 30 minutes. The short-circuit current was measured in voltage clamp-mode (Vhold=0 mV), and the entire assay was conducted at a temperature of 36° C.-36.5° C. Once the voltages stabilized, the chambers were clamped, and data were recorded by pulse readings every 5 seconds. Following baseline current stabilization, the following additions were applied and the changes in current and resistance of the cells were monitored: • 1. Benzamil to the apical chamber to inhibit ENaC sodium channel. • 2. Forskolin to both chambers to activate ΔF508-CFTR by phosphorylation. • 3. Ivacaftor or Genistein to the apical chamber to potentiate ΔF508-CFTR channel opening. • 4. CFTRinh-172 to the apical chamber to inhibit ΔF508-CFTR Cl-conductance.
(§2) The forskolin-sensitive current and inhibitable current (that potentiated current that was blocked by CFTRinh-172) were measured as the specific activity of the ΔF508-CFTR channel, and increase in response to compound in this activity over that observed in vehicle-treated samples were identified as the correction of ΔF508-CFTR function imparted by the compound tested.
The results are shown below in Tables 3 and 4. Compound A is 10 uM and VX-809 is 3 uM and ivacaftor is 1 uM.

[2] = test system: CFTR in G551D/F508del HBEs; experiment: Ussing measurements, G551D/F508del HBEs; assay type: cell-based, human; details: genotype G551D/F508del
Protocol: as §1, with “Ussing measurements was used to” for “Ussing measurements were used to”, “a Cystic Fibrosis-causing class III” for “a Cystic fibrosis causing class I”, “Fibrosis-causing class III mutation were” for “causing class I mutation were”, “from DMSO stocks. Treated” for “from DMSO or aqueous stocks. Treated”, “and data was recorded by” for “and data were recorded by”, “the cells was monitored: •” for “the cells were monitored: •”
as §2, with “is” for “was”
The results are shown below in Tables 5 and 6. Compound A is 10 uM and VX-809 is 3 uM and ivacaftor is 1 uM.

SMILES: C[C@@H](O)c1nnc([C@H]2C[C@H](NC(=O)c3cc(-c4ccccc4)no3)C2)o1 [Example 6, N-(trans-3-(5-((R)-1-hydroxyethyl)-1,3,4-oxadiazol-2-yl)cyclobutyl)-3-phenylisoxazole-5-carboxamide]
- leq: activity of compound with VX-809, % of VX-809 (AUC of equivalent chloride current) (ΔF508-CFTR): * (* indicates activity 100-200% of VX-809 (1 uM) with compound at 10 uM and VX-809 at 1 uM)
- Combination with ivacaftor and VX-661, activity ([1]; compound A 10uM + ivacaftor 1uM + VX-661 3 uM, relative activity of 100% = ivacaftor and VX-661): ++++ (++++ indicates activity at 10uM of >150% of the indicated relative activity treatment)
- Combination with ivacaftor and lumacaftor, activity ([1]; compound A 10uM + ivacaftor 1uM + lumacaftor 3 uM, relative activity of 100% = ivacaftor and lumacaftor): ++++ (++++ indicates activity at 10uM of >150% of the indicated relative activity treatment)
- Stand Alone activity ([1]; compound A 10uM, relative activity of 100% = ivacaftor (1uM) and lumacaftor (3 uM)): + (+ indicates activity at 10uM of 15% to <50% of the indicated relative activity treatment)
- Combination with ivacaftor, activity ([2]; compound A 10uM + ivacaftor 1uM, relative activity of 100% = ivacaftor): ++++ (++++ indicates activity at 10uM of >150% of the indicated relative activity treatment)
- Stand Alone activity ([2]; compound A 10uM, relative activity of 100% = ivacaftor (1uM)): + (+ indicates activity at 10uM of 15% to <50% of the indicated relative activity treatment)
